In paper PMC6787515 (Journal of Cellular and Molecular Medicine, 2019):
In brackets after ≈: the same amount, converted by molar mass.

Assays:
Format in all cases: biochemical, Staphylococcus aureus
β‐lactamase N1 [1] = target: T1, β‐lactamase N1; test: nitrocefin hydrolysis assay, purified recombinant enzyme
T1 construct: gene rnjB

β‐lactamase N1 [2] = target: T1, β‐lactamase N1; test: nitrocefin hydrolysis assay, purified mutant enzyme
β‐lactamase N1 [3] = target: T1, β‐lactamase N1; test: as above; remark: listed apart in the source

SMILES: O=C(O[C@@H]1Cc2c(O)cc(O)cc2O[C@@H]1c1cc(O)c(=O)c2c(O)c(O)cc([C@H]3Oc4cc(O)cc(O)c4C[C@H]3OC(=O)c3cc(O)c(O)c(O)c3)c2c1)c1cc(O)c(O)c(O)c1 [TFDG, Theaflavin‐3,3´‐digallate]
- IC50 (β‐lactamase N1 [1]): 5.82 µg/mL
- IC50 (β‐lactamase N1 [2]): 30.13 µg/mL (≈ 34.7 µM)
- IC50 (β‐lactamase N1 [3]): 28.91 µg/mL (≈ 33.3 µM)
